Values quoted from earlier work in patent publication US20260373165A1, “PHARMACEUTICAL COMBINATIONS AND COMPOSITIONS, AND METHODS OF USE THEREOF” (SHENZHEN HIGHTIDE BIOPHARMACEUTICAL LTD., priority 2022, published 2026).

Settings: after 52 weeks of treatment, lower dose of semaglutide; cited from earlier work

Cc1ccc([C@@H]2O[C@H](CO)[C@@H](O)[C@H](O)[C@H]2O)cc1Cc1ccc(-c2ccc(F)cc2)s1 [cangliflozin, canagliflozin]
average decrease in total fat mass: 7.8% | average decrease in total muscle mass: 2.9%
